Laboratory results published in patent US10294202B2, “Pyrrolidinones as herbicides” (FMC Corporation, priority 2013, dated 2019).

How the values were obtained:
waterhemp = assay: Test C pre-/postemergence herbicide test; format: in vivo, Amaranthus rudis
Outline: (§1)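 Pre- and postemergence greenhouse screen. Preemergence treatment went onto freshly planted seeds in loam–sand soil; postemergence treatment went onto plants 2 to 18 cm tall at the 1- to 4-leaf stage in sphagnum peat/vermiculite medium. Scoring at 13 to 15 days used a 0–100 control scale.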

oilseed rape = assay: Test C pre-/postemergence herbicide test; format: in vivo, Brassica napus
Outline: as §1

galium = assay: Test A postemergence herbicide test; format: in vivo, Galium aparine; details: 125 g ai/ha, visual rating on 0 to 100 scale (0 no effect, 100 complete control), approx. 10 days
Outline: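 Blackgrass and galium grown in pots of loam soil–sand blend, treated postemergence at 2–10 cm height, one- to two-leaf stage. Plants kept in greenhouse ~10 days, then visually rated for injury against untreated controls on a 0–100 scale (0 no effect, 100 complete control).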

barnyardgrass [1] = assay: Test A pre-/postemergence herbicide test; format: in vivo, Echinochloa crus-galli
Outline: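 Visual injury ratings, 0 = no effect, 100 = complete control, taken ~10 days after treatment against untreated greenhouse controls. Preemergence: directed soil spray onto seeded loam/sand pots. Postemergence: spray onto plants at one- to two-leaf stage, 2–10 cm tall.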

barnyardgrass [2] = assay: Test B flooded paddy test; format: in vivo, Echinochloa crus-galli; details: 1000 g ai/ha, Flood; scale of 0 to 100 where 0 is no effect and 100 is complete control
Outline: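 First, plants reach the 2-leaf stage; next, pots are flooded to 3 cm and compound is delivered into the water; finally, after 13 to 15 greenhouse days at constant depth, injury is graded visually from 0 to 100 against controls.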

soybean = assay: Test C pre-/postemergence herbicide test; format: in vivo, Glycine max
Outline: as §1

foxtail, giant = assay: Test C pre-/postemergence herbicide test; format: in vivo, Setaria faberii
Outline: as §1

[3] = Preemergence, 62 g ai/ha, scale 0 to 100 (0 no effect, 100 complete control)
[4] = Preemergence, 125 g ai/ha, scale 0 to 100
[5] = Preemergence, 31 g ai/ha, scale 0 to 100, 0 is no effect and 100 is complete control
[6] = Postemergence, 125 g ai/ha, visual rating on 0 to 100 scale (0 no effect, 100 complete control), approx. 10 days
[7] = Postemergence, 500 g ai/ha, 0 to 100 scale (0 no effect, 100 complete control)
[8] = Preemergence, 125 g ai/ha, 0 to 100 scale where 0 is no effect and 100 is complete control
[9] = Preemergence, 500 g ai/ha, visual rating on 0 to 100 scale (0 no effect, 100 complete control)
[10] = Postemergence, 31 g ai/ha, scale 0 to 100 (0 no effect, 100 complete control)
[11] = Postemergence, 62 g ai/ha, scale 0 (no effect) to 100 (complete control)
[12] = Postemergence, 125 g ai/ha, scale 0 to 100 (0 no effect, 100 complete control)
[13] = Postemergence, 250 g ai/ha, scale 0 to 100 (0 no effect, 100 complete control)
[14] = Preemergence, 31 g ai/ha, scale 0 to 100

SMILES	Waterhemp plant response rating (waterhemp; [3])	Plant response rating, Waterhemp (waterhemp; [4])	Oilseed Rape plant response rating (oilseed rape; [3])	Plant response rating, Oilseed Rape (oilseed rape; [4])	Plant response rating (scale of 0 to 100), Oilseed Rape (oilseed rape; Preemergence, 250 g ai/ha)	Plant response rating, Galium (galium)	Plant response rating, Barnyardgrass (barnyardgrass [1]; [6])	Plant response rating, Barnyardgrass (barnyardgrass [1]; [7])	Plant response rating, Barnyardgrass (barnyardgrass [1]; [8])	Barnyardgrass plant response rating (barnyardgrass [1]; [9])	Plant response rating, Barnyardgrass (barnyardgrass [2])	Soybean plant response rating (soybean; [3])	Plant response rating, Soybean (soybean; [4])	Foxtail, Giant plant response rating (foxtail, giant; [3])	Plant response rating, Foxtail, Giant (foxtail, giant; [4])	Plant response rating (scale of 0 to 100), Foxtail, Giant (foxtail, giant; Preemergence, 250 g ai/ha)	also measured
O=C1NCC(c2cccc(C(F)(F)F)c2)C1C(=O)Nc1ccc(F)c(F)c1F (stereo not drawn) [Compound 345]	5	40	55	85	85	60	70	90	80	90	0	0	5	90	95	98	Oilseed Rape plant response rating (oilseed rape; [5]): 50; Foxtail, Giant plant response rating (foxtail, giant; [5]): 85
O=C1NCC(c2ccc(F)c(F)c2)C1C(=O)Nc1ccc(F)c(F)c1F (stereo not drawn) [Compound 346]	25	10	0	50	60	30	80	90	80	90	85	0	0	90	98	98	Plant response rating, Waterhemp (waterhemp; [10]): 0; Plant response rating, Waterhemp (waterhemp; [11]): 0; Plant response rating, Waterhemp (waterhemp; [12]): 15; Plant response rating, Waterhemp (waterhemp; [13]): 40; Plant response rating, Waterhemp (waterhemp; [14]): 75; Plant response rating, Oilseed Rape (oilseed rape; [10]): 0; Plant response rating, Oilseed Rape (oilseed rape; [11]): 0; Plant response rating, Oilseed Rape (oilseed rape; [12]): 0; Plant response rating, Oilseed Rape (oilseed rape; [13]): 0; Plant response rating, Oilseed Rape (oilseed rape; [14]): 0; Plant response rating, Soybean (soybean; [10]): 0; Plant response rating, Soybean (soybean; [11]): 5; Plant response rating, Soybean (soybean; [12]): 0; Plant response rating, Soybean (soybean; [13]): 5; Plant response rating, Soybean (soybean; [14]): 0; Plant response rating, Foxtail, Giant (foxtail, giant; [10]): 20; Plant response rating, Foxtail, Giant (foxtail, giant; [11]): 0; Plant response rating, Foxtail, Giant (foxtail, giant; [12]): 40; Plant response rating, Foxtail, Giant (foxtail, giant; [13]): 85; Plant response rating, Foxtail, Giant (foxtail, giant; [14]): 90
